Patent US20250042900A1 (priority 2022, published 2025)
Counter-ions that a name gives are not always drawn.

Tests used:
[1] = biological target: Dopamine Receptor D2 (DRD2S) (Homo sapiens, UniProt P14416); test: cAMP secondary messenger assay, antagonist format; type: cell-based; conditions: read-out: IC50 (μM) Antag./Blocker/Inhibitor
[2] = biological target: Muscarinic acetylcholine Receptor M1 (CHRM1) (Homo sapiens, UniProt P11229); test: cell-based; conditions: Calcium Flux, antagonist, read-out: IC50 (μM) Antag./Blocker/Inhibitor
Chain of Muscarinic acetylcholine Receptor M1 (CHRM1) (P11229 whole entry): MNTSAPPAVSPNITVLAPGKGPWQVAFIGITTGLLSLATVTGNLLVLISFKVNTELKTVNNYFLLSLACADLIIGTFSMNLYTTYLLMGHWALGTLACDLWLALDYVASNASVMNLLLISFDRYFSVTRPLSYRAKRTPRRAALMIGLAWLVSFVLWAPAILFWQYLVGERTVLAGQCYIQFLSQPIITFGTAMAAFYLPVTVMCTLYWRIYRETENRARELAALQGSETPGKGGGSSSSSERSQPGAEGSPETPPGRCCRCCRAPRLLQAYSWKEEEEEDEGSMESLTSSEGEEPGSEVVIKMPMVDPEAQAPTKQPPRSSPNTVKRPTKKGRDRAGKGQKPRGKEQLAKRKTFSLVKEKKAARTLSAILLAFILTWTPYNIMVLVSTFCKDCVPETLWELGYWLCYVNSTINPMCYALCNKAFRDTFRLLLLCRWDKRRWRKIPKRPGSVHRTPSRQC

KvLQT1/minK = KvLQT1/minK (Homo sapiens, UniProt P51787); test: Ion channel assay, blocker format; type: cell-based; conditions: read-out: IC50 (μM) Antag./Blocker/Inhibitor
AChE = biological target: T1, AChE (Homo sapiens, UniProt P22303); test: Enzymatic assay AChE; type: biochemical; conditions: inhibitor, read-out: IC50 (μM) Antag./Blocker/Inhibitor
T1 construct: purchased R&D Systems
T1 sequence (P22303 32-614): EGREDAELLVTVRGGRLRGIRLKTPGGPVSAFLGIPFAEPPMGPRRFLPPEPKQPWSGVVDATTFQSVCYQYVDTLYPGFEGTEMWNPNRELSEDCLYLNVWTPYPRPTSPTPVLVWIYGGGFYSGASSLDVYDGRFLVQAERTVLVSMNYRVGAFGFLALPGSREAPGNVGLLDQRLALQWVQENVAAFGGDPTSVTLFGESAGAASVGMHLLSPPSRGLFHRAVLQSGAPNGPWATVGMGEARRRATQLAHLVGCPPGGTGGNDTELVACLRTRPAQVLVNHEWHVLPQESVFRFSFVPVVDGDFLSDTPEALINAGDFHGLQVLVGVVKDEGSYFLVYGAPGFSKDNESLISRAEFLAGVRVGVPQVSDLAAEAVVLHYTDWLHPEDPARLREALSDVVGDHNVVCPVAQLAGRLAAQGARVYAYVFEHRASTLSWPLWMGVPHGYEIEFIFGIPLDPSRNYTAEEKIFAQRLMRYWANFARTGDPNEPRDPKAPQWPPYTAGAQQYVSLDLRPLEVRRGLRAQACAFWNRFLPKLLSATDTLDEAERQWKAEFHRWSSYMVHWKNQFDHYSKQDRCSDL

serotonin transporter = biological target: T2, serotonin transporter (Homo sapiens, UniProt P31645); test: cell-based; conditions: SERT, blocker, read-out: IC50 (μM) Antag./Blocker/Inhibitor
T2 construct: expressed in transfected cells
T2 sequence (P31645 whole entry): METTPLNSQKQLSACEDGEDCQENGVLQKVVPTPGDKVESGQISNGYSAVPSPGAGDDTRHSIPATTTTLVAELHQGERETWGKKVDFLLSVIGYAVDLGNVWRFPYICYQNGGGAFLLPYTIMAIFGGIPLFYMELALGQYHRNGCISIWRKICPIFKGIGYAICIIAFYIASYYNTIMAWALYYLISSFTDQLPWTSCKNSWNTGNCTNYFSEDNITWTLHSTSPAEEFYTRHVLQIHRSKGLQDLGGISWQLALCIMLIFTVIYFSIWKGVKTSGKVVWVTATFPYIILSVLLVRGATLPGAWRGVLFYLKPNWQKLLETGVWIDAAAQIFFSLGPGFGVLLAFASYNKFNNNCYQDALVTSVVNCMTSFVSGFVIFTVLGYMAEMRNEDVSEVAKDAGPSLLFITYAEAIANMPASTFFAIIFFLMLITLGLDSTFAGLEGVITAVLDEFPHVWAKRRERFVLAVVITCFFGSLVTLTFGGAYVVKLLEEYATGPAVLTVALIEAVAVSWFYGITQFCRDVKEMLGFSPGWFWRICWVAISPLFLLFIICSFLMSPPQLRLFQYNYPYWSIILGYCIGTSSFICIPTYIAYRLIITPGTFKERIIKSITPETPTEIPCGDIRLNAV

[3] = biological target: Muscarinic acetylcholine Receptor M3 (CHRM3) (Homo sapiens, UniProt P20309); test: Calcium flux secondary messenger assay, agonist format; type: cell-based; conditions: read-out: EC50 (μM) Agonist/Opener
Chain of Muscarinic acetylcholine Receptor M3 (CHRM3) (P20309 whole entry): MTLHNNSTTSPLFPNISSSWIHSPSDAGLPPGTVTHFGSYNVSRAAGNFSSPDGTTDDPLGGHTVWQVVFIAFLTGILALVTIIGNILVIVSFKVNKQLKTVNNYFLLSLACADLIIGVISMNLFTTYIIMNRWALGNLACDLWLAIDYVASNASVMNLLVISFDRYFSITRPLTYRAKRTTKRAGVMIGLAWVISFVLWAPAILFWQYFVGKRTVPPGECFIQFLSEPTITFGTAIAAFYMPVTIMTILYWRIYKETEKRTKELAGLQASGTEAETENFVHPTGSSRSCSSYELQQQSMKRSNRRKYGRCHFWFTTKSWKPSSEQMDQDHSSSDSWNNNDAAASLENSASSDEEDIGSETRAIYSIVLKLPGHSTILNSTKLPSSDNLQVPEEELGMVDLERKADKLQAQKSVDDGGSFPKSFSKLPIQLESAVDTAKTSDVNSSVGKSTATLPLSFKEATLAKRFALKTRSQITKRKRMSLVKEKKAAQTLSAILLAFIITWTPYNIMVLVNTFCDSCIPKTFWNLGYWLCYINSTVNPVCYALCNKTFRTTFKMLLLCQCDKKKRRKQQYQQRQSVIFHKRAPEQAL

[4] = biological target: Adrenergic Receptor α2A (ADRA2A) (Homo sapiens, UniProt P08913); test: cAMP secondary messenger assay, agonist format; type: cell-based; conditions: read-out: EC50 (μM) Agonist/Opener
Chain of Adrenergic Receptor α2A (ADRA2A) (P08913 whole entry): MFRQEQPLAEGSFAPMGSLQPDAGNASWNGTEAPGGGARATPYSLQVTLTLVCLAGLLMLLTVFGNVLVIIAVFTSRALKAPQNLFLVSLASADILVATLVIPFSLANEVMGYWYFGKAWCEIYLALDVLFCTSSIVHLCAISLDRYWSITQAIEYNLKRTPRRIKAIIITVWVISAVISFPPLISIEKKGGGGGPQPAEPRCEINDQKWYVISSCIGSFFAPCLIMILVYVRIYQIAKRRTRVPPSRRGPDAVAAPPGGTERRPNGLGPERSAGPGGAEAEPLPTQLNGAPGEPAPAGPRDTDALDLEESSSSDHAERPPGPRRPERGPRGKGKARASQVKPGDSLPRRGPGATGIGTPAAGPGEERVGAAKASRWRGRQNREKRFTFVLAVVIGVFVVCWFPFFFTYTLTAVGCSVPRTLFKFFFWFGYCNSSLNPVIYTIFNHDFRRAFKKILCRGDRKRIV

[5] = biological target: Cannabinoid Receptor 1 (CNR1) (Homo sapiens, UniProt P21554); test: cAMP secondary messenger assay, agonist format; type: cell-based; conditions: read-out: EC50 (μM) Agonist/Opener
Chain of Cannabinoid Receptor 1 (CNR1) (P21554 whole entry): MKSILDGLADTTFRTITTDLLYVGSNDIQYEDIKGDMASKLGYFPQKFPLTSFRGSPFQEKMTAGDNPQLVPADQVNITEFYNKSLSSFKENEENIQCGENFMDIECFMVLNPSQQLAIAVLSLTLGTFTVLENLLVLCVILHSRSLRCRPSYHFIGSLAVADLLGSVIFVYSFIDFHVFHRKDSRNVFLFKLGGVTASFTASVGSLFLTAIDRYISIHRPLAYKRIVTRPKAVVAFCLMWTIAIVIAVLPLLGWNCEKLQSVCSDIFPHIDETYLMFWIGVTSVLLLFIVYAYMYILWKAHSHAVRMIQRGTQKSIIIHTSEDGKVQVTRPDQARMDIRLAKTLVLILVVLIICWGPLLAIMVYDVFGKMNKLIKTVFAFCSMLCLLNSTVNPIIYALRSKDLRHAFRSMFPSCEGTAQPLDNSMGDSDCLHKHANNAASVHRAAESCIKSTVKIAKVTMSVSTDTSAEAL

[6] = biological target: Adrenergic Receptor β2 (ADRB2) (Homo sapiens, UniProt P07550); test: cAMP secondary messenger assay, agonist format; type: cell-based; conditions: read-out: EC50 (μM) Agonist/Opener
Chain of Adrenergic Receptor β2 (ADRB2) (P07550 whole entry): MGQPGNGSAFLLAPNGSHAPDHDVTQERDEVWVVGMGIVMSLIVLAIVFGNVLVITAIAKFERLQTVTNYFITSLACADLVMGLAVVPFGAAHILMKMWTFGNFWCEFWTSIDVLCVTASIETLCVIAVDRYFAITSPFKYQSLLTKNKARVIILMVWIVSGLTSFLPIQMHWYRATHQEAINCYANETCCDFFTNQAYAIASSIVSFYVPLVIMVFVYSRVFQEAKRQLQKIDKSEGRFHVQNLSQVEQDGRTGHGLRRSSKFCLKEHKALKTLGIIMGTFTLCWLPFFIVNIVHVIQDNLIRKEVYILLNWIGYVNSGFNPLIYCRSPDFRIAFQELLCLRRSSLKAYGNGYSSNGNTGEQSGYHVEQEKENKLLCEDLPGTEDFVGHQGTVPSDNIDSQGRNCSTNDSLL

COX1 = biological target: T3, COX1 (Homo sapiens, UniProt P23219); test: Enzymatic assay COX1; type: biochemical; conditions: inhibitor, read-out: IC50 (μM) Antag./Blocker/Inhibitor
T3 construct: purchased BPS Bioscience

[7] = biological target: Muscarinic acetylcholine Receptor M2 (CHRM2) (Homo sapiens, UniProt P08172); test: cAMP secondary messenger assay, agonist format; type: cell-based; conditions: read-out: EC50 (μM) Agonist/Opener
[8] = biological target: T4, 5-Hydroxytryptamine (Serotonin) Receptor 1A (5-HT1A) (Homo sapiens, UniProt P08908); test: cAMP secondary messenger assay, agonist format; type: cell-based; conditions: read-out: EC50 (μM) Agonist/Opener
T4 construct: host or cells: cAMP Hunter cell line
T4 sequence (P08908 whole entry): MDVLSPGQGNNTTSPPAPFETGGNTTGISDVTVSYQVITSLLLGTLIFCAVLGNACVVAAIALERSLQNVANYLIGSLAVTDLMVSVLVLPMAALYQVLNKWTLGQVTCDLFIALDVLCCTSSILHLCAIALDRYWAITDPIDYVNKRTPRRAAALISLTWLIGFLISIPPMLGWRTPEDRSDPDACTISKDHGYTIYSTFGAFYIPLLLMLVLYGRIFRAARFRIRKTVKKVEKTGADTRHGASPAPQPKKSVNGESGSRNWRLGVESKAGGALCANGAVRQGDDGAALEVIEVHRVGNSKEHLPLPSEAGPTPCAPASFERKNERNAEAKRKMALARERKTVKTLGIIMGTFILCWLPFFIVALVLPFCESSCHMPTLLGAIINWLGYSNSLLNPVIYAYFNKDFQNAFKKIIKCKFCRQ

[9] = biological target: Dopamine Receptor D1 (DRD1) (Homo sapiens, UniProt P21728); test: cAMP secondary messenger assay, agonist format; type: cell-based; conditions: read-out: EC50 (μM) Agonist/Opener
Chain of Dopamine Receptor D1 (DRD1) (P21728 whole entry): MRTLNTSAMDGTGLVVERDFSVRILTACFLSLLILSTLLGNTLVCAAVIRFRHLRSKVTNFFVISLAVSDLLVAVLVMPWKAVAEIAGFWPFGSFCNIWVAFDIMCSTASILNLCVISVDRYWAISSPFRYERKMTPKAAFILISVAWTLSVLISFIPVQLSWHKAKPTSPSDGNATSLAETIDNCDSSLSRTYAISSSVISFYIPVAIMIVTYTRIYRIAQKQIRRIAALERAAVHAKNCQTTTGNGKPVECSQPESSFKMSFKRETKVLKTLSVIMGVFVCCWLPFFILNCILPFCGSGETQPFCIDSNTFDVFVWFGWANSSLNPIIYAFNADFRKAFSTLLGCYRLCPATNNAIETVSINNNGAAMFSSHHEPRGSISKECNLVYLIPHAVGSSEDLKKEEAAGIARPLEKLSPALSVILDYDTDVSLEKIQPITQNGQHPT

[10] = biological target: NAV1.5 (tetrodotoxin-resistant voltage-gated sodium channel) (Homo sapiens, UniProt Q14524); test: cell-based

Chain of Dopamine Receptor D2 (DRD2S) (P14416 1-414 isoform P14416-2): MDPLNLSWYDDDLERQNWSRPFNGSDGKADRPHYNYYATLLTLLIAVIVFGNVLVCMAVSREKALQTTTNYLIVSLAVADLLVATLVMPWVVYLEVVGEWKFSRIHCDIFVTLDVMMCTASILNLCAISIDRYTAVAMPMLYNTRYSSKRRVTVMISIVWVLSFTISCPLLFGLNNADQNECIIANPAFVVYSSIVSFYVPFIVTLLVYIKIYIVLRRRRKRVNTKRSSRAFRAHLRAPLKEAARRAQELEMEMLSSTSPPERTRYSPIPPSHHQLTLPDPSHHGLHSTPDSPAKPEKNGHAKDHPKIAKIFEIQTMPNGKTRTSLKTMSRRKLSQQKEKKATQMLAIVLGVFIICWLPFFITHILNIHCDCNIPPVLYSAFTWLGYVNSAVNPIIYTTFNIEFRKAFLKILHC

Q: With `CN(C)CCc1ccn2ccccc12` [28-12 oxalate, 2-(indolizin-1-yl)-N, N-dimethylethan-1-amine oxalate] as the compound, how does the IC50 [1] read?
A: 22.3 µM

Q: And the IC50 [2]?
A: > 30 µM

Q: What about the IC50 (KvLQT1/minK) of the same compound?
A: > 30 µM

Q: And the IC50 (AChE)?
A: > 30 µM

Q: And the IC50 (serotonin transporter)?
A: > 30 µM

Q: What about the EC50 [3] of the same compound?
A: > 30 µM

Q: What about the EC50 [4] of the same compound?
A: > 30 µM

Q: And the EC50 [5]?
A: > 30 µM

Q: What about the EC50 [6] of the same compound?
A: > 30 µM

Q: What about the IC50 (COX1) of the same compound?
A: 5.13 µM

Q: And the EC50 [7]?
A: > 30 µM

Q: What about the EC50 [8] of the same compound?
A: > 30 µM

Q: What about the EC50 [9] of the same compound?
A: > 30 µM

Q: What about the IC50 [10] of the same compound?
A: > 30 µM
